Biological target: T1, CRF1 Receptor (Homo sapiens, UniProt P34998)
T1 construct: endogenous in cells; host or cells: IMR-32 human neuroblastoma cells (membrane preparation)
T1 sequence (P34998 24-415): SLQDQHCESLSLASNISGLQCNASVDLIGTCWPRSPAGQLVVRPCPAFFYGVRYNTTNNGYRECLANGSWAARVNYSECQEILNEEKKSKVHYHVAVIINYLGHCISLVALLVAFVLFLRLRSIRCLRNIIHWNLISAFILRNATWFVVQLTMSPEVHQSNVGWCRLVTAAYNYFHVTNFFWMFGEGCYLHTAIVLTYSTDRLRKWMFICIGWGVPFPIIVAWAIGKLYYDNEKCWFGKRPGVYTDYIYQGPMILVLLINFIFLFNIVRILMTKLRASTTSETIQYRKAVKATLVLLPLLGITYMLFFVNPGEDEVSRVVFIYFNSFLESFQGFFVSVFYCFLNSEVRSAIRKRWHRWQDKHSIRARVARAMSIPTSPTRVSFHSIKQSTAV
Experiment: CRF1 Receptor Binding Assay
Conditions: competition with [125I]Tyr0-ovine CRF, human IMR-32 neuroblastoma cell membranes; pKi derived from pIC50
Description: CRF1 Receptor Binding Assay
Human IMR-32 neuroblastoma cells are grown to 80% confluence in MEM medium containing 10% heat-inactivated FBS, 1 mM Sodium Pyruvate, and 0.1 mM nonessential amino acids. Cell membranes are prepared according the method of Dieterich and DeSouza (1996). The cells (˜5E+9) are resuspended in 10 volumes of wash buffer (5 mM Tris HCl, 10 mM MgCl2, 2 mM EGTA, pH 7.4 at RT), homogenized with a Polytron, and then centrifuged at 45,000 G for 20 min at 4° C. The membrane pellets are washed twice with wash buffer (45,000 G for 20 min at 4° C.) and then resuspended (50 mM Tris HCl, 10 mM MgCl2, 2 mM EGTA, pH 7.4 at RT). Protein concentration is determined using Pierce reagents and BSA as standard. […]
The competition binding assay is performed in a final volume of 250 μl, which contains assay buffer (50 mM Tris-HCl, 10 mM MgCl2, 2 mM EGTA, 0.2% BSA, 0.1 mM bacitracin and 100 kIU/mL aprotinin pH 7.2 at R.T.), 0.05 nM [^125I]Tyr^0-ovine CRF (Du Pont New England Nuclear), 50 μg of membrane protein, and test compound at various concentrations. Non-specific binding is determined with 1 uM hCRF. […] Unbound radioactivity is removed by four rapid washes (0.8 ml/well) with wash buffer. The radioactivity is quantified using a Packard TopCount. Data are analyzed using non-linear iterative curve fitting to obtain IC50 and Hill slope values. […]

`CCCN(CC1CC1)c1nc(C)nc2c1CCCC21CCc2ccccc21` (stereo not shown) [Compound 1, (2,3,5′,6′,-Tetrahydro)-2′-methyl-4′-(N-propyl-N-cyclo-propylmethyl-amino)spiro[(1H)indene-1,8′-(7H)quina-zoline]] gave a Ki of 123 nM.
